# Measured values taken from US12545637B2, “Extrahepatic targeted cationic lipid compound with high efficiency and low toxicity and its composition” (BEIJING YOUCARE KECHUANG PHARMACEUTICAL TECHNOLOGY CO., LTD., priority 2023, dated 2026).
# Legend:
# [1] = test system: 293T cells; assay: Cell transfection test of LNP formulation of eGFP-mRNA (optimization of preparation conditions); format: cell-based
# Method: The cationic lipid compound YK-407 synthesized in Example 1 was dissolved in ethanol with DSPC (AVT (Shanghai) Pharmaceutical Technology Co., Ltd.), cholesterol (AVT (Shanghai) Pharmaceutical Technology Co., Ltd.) and DMG-PEG2000 according to a molar ratio of 49:10:39.5:1.5, respectively, to prepare an ethanol lipid solution. The ethanol lipid solution was quickly added to citrate buffer (pH=4-5) by ethanol injection method, and vortexed for 30s for later use. eGFP-mRNA was diluted in citrate buffer (pH=4-5) to give an aqueous mRNA solution. A certain volume of liposome solution and mRNA aqueous solution were used to prepare liposomes at weight ratios of total lipids to mRNA of 5:1, 10:1, 15:1, 20:1, 30:1 and 35:1, respectively. The mixtures were sonicated at 25° C. for 15 min (with an ultrasonic frequency of 40 kHz and an ultrasonic power of 800 W). The resulted liposomes were diluted to 10 times volume with PBS, and then ultrafiltered with a 300KDa ultrafiltration tube to remove ethanol. Then the volume was fixed to a certain volume with PBS to give an LNP formulation encapsulating eGFP-mRNA using cationic lipid YK-407/DSPC/cholesterol/DMG-PEG2000 (49:10:39.5:1.5 in molar percentage).
# The LNP formulation encapsulating eGFP-mRNA was prepared according to the method in 1, wherein the molar ratios of cationic lipid YK-407 to neutral lipid DSPC were 1:1, 3:1, 3.5:1, 4:1, 4.5:1, 4.9:1, 10:1, 15:1 and 20:1.
# The LNP formulation encapsulating eGFP-mRNA was prepared according to the method in 1, wherein the cationic lipid in the carrier was YK-407, and the molar ratios of the polymer-conjugated lipid DMG-PEG2000 to the carrier were 0.5%, 1.5%, 3.5%, 5%, 10% and 15%, respectively.
# The LNP formulation encapsulating eGFP-mRNA was prepared according to the method in 1, wherein the molar ratios of cationic lipid YK-407, neutral lipid DSPC, structured lipid cholesterol and polymer-conjugated lipid DMG-PEG2000 were 75:5:15:5, 49:10:39.5:1.5, 45:10:43.5:1.5, 45:25:20:10, 40:10:48.5:1.5, 35:10:53.5:1.5 and 25:5:65:5, respectively.
# Cell recovery and passage: 293T cells were recovered, cultured in a culture dish, and passaged to the required number of cells.
# Seeding plate: The cells in the culture dish were digested and counted. Cells were spread in a 96-well plate at 10,000 cells per well and in a 12-well plate at 150,000 cells per well. Cells were cultured overnight until the cells adhered to the wall.
# Cell transfection test: The LNP formulation containing 1.5 μg of eGFP-mRNA prepared in Example 2 (the cationic lipid in the carrier was YK-407) and the Lipofectamin 3000 formulation of eGFP-mRNA were added respectively to the cell culture medium of the 12-well plate, and further incubated for 24 hours. The transfection efficiency of different samples was then investigated according to the fluorescence intensity by observing with a fluorescence microscope.
# [2] = test system: female BALB/C mice; assay: In vivo imaging in mice of Fluc-mRNA LNP formulations (mRNA expression and duration)
# In short: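 Female BALB/C mice (4-6 weeks, 17-19 g) received LNP carrying […] Fluc-mRNA intramuscularly. At 6h, 24 h, 48h and 7d, fluorescent imaging substrate was given intraperitoneally and after 5 minutes average radiance, as a measure of expressed protein, was imaged on an IVIS Spectrum system.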
# [3] = test system: 293T cells; assay: Fluorescent detection of Fluc-mRNA (cell transfection efficiency of LNP formulations); format: cell-based
# [4] = test system: 293T cells; assay: as above; format: cell-based; remark: listed apart in the source
smiles,measurement,setting,value
CCCCCCCCC(CCCCCCCC)C(=O)OCCCCCCN(CCO)CCN(CCO)CCCCCCOC(=O)C(CCCCCCCC)CCCCCCCC [YK-402],transfection efficiency at different molar ratios of polymer-conjugated lipid DMG-PEG2000 to carrier,[1]; 0.5% to 15%,same results
same,"transfection effect at different molar ratios of cationic lipid, neutral lipid, structured lipid and polymer-conjugated lipid",[1]; 75:5:15:5 to 25:5:65:5,same results
same,"average radiation intensity, times that of ALC-0315",[2]; 6 h,1.75
same,"average radiation intensity, times that of HHMA",[2]; 6 h,2.22
same,"average radiation intensity, times that of SM-102",[2]; 6 h,2.13
same,"average radiation intensity, times that of compound 21",[2]; 6 h,2.45
same,"average radiation intensity, times that of compound 23",[2]; 6 h,2.53
same,"expression amount in mice, times that of YK-415",[2]; 6 h,12.48
same,"expression amount in mice, times that of YK-417",[2]; 6 h,24.31
same,"mRNA expression in mice, times that of YK-411",[2]; 6 h,251.30
same,"average radiation intensity, times that of ALC-0315",[2]; 24 h,4.21
same,"average radiation intensity, times that of HHMA",[2]; 24 h,6.65
same,"average radiation intensity, times that of SM-102",[2]; 24 h,6.47
same,"average radiation intensity, times that of compound 21",[2]; 24 h,7.19
same,"average radiation intensity, times that of compound 23",[2]; 24 h,7.91
same,"expression amount in mice, times that of YK-415",[2]; 24 h,12.38
same,"expression amount in mice, times that of YK-417",[2]; 24 h,39.95
same,"mRNA expression in mice, times that of YK-411",[2]; 24 h,394.86
same,"average radiation intensity, times that of ALC-0315",[2]; 48 h,8.62
same,"average radiation intensity, times that of HHMA",[2]; 48 h,10.37
same,"average radiation intensity, times that of SM-102",[2]; 48 h,10.52
same,"average radiation intensity, times that of compound 21",[2]; 48 h,10.96
same,"average radiation intensity, times that of compound 23",[2]; 48 h,10.50
same,"expression amount in mice, times that of YK-415",[2]; 48 h,21.90
same,"expression amount in mice, times that of YK-417",[2]; 48 h,49.08
same,"mRNA expression in mice, times that of YK-411",[2]; 48 h,354.61
same,"average radiation intensity, times that of ALC-0315",[2]; 7 d,1.42
same,"average radiation intensity, times that of HHMA",[2]; 7 d,1.67
same,"average radiation intensity, times that of SM-102",[2]; 7 d,1.48
same,"average radiation intensity, times that of compound 21",[2]; 7 d,1.56
same,"average radiation intensity, times that of compound 23",[2]; 7 d,1.63
same,"expression amount in mice, times that of YK-415",[2]; 7 d,2.46
same,"expression amount in mice, times that of YK-417",[2]; 7 d,4.35
same,"mRNA expression in mice, times that of YK-411",[2]; 7 d,20.71
same,"average radiation intensity, 6 h","[2]; Fluc-mRNA LNP intramuscular, 6 h after administration",1470100
same,"average radiation intensity, 24 h","[2]; Fluc-mRNA LNP intramuscular, 24 h after administration",798408
same,"average radiation intensity, 48 h","[2]; Fluc-mRNA LNP intramuscular, 48 h after administration",345740
same,"average radiation intensity, 7 d","[2]; Fluc-mRNA LNP intramuscular, 7 d after administration",9940
same,Relative light unit (RLU),"[3]; LNP with 0.3 μg Fluc-mRNA, 96-well plate, 24 hours",5044102 RLU
same,"cell transfection efficiency, times that of YK-415",[3]; ratio vs YK-415,16.93
same,"cell transfection efficiency, times that of YK-417",[3]; ratio vs YK-417,43.01
same,"cell transfection efficiency, times that of YK-418",[3]; ratio vs YK-418,45.34
same,"cell transfection efficiency, times that of YK-424",[3]; ratio vs YK-424,1.75
same,"RLU value, times that of compound 21",[3]; ratio vs compound 21,3.34
same,"RLU value, times that of compound 23",[3]; ratio vs compound 23,3.60
same,"RLU value, times that of ALC-0315",[4]; ratio vs ALC-0315,2.30
same,"RLU value, times that of HHMA",[4]; ratio vs HHMA,2.43
same,"RLU value, times that of Lipofectamine 3000",[4]; ratio vs Lipofectamine 3000,4.20
same,"RLU value, times that of YK-009",[4]; ratio vs YK-009,0.98
same,"RLU value, times that of YK-405",[4]; ratio vs YK-405,1.58
same,"RLU value, times that of YK-406",[4]; ratio vs YK-406,64.46
same,"RLU value, times that of YK-408",[4]; ratio vs YK-408,3.42
same,"RLU value, times that of YK-409",[4]; ratio vs YK-409,7.53
same,"RLU value, times that of YK-410",[4]; ratio vs YK-410,12.37
same,"cell transfection efficiency, times that of YK-412",[4]; ratio vs YK-412,1.50
same,"cell transfection efficiency, times that of YK-413",[4]; ratio vs YK-413,3.66
same,"cell transfection efficiency, times that of YK-414",[4]; ratio vs YK-414,11.36
same,"cell transfection efficiency, times that of YK-416",[4]; ratio vs YK-416,1.27
same,"cell transfection efficiency, times that of YK-419",[4]; ratio vs YK-419,1.59
same,"cell transfection efficiency, times that of YK-420",[4]; ratio vs YK-420,1.25
same,"cell transfection efficiency, times that of YK-421",[4]; ratio vs YK-421,10.81
